# Results reported in article PMC11250742, “Preclinical evaluation of CXCR4 peptides for targeted radionuclide therapy in glioblastoma” (EJNMMI Radiopharmacy and Chemistry, 2024).
# Where a SMILES comes first, the peptide text is derived from it. Bridges are numbered along the chain shown (N, C = ends). Roman numbers before positions name the chains, in order. [ ]: non-standard residue; d: D form. The star is where a group is joined. DOTA = O=C(O)CN1CCN(CC(=O)O)CCN(CC(=O)*)CCN(CC(=O)O)CC1
# Columns and labels:
# Assay type in all cases: cell-based
# U87-CXCR4 + cells [1] = assay: Cell membrane binding and internalisation assay
# Protocol: In the saturation binding assays, U87-CXCR4 + cells were seeded in 24-well plates and allowed to adhere. The night before the experiment, complete media was replaced with media containing 2% FBS. To determine the total binding, cells were treated with a mixture of each radiolabelled peptide (at final concentrations ranging from 0.1 to 1000 nM, corresponding to activity concentrations ranging from 0.005 to 50 MBq/mL) with 0.2% dimethyl sulfoxide (DMSO, vehicle). Non-specific binding (NSB) was verified by treating cells with a mixture of each radiolabelled peptide with 100 µM of AMD11070, a potent CXCR4 antagonist.
# After 4 h of incubation at 37 °C and 5% CO2, the unbound fraction was collected in gamma counter tubes, and the cells were washed twice with PBS. The wash fractions were added to the same gamma counter tubes. Next, cells were lysed by incubation with 1 M NaOH for 30 min at room temperature (RT). After collecting the lysed cell fractions, two washes with 1 M NaOH were performed, and added to the same fractions, corresponding to the total bound fractions.
# For the internalisation assay, 1 and 100 nM of the radiolabelled peptides were used. The membrane-bound fraction was separated from the internalised fraction by a 10 min incubation at RT with a stripping buffer of 50 mM glycine and 100 mM NaCl, pH 2.8. This was followed by lysis with 1 M NaOH as described above.
# The activities of all collected fractions were measured in an automated gamma counter. Activity measurements were converted to % added activity (%AA) and normalised for cell counts. A standard curve, obtained by measuring the treatment solutions, was used to convert the activity concentration to moles.
# U87-CXCR4 + cells [2] = assay: MTS cell viability assay; conditions: for cell viability: % of vehicle, mean ± SD
# Protocol: Cell viability assays were performed using increasing activity concentrations of the radiolabelled peptides (1 to 20 MBq/mL), incubated with U87-CXC4 + cells for four hours at 37 °C, 5% CO2. After the incubation period, cells were washed twice with PBS and replenished with complete media. After five and seven days of treatment, the cell media was removed and MTS (3-(4,5-dimethylthiazol-2-yl)-5-(3-carboxymethoxyphenyl)-2-(4-sulfophenyl)-2 H-tetrazolium) reagent added, prepared according to manufacturer’s instructions (CellTiter 96® AQueous One Solution Cell Proliferation Assay, Promega, Wisconsin, United States). To determine the effect of the radiation originating from unbound radiolabelled peptides, cells were treated with equivalent activity concentrations of [^177Lu]Lu-DTPA. Triton X-100 (0.1%) was used as a positive control. Vehicle includes the NaOAc radiolabeling buffer at the concentration used for the 20 MBq/mL peptide solutions. The cells were incubated for 0.5–1 h with the MTS reagent at 37 °C, 5% CO2. Absorbance was measured at 490 nm using a BioTek Synergy H1 plate reader (Agilent Technologies, Mechelen, Belgium). Cell viability was normalised to the vehicle and calculated as percentage of cell viability.
# U87-CXCR4 + cells [3] = assay: Apoptosis live cell imaging (Annexin V, Caspase 3/7; IncuCyte); conditions: day 5, 4 h, normalised to confluence and vehicle, N = 2
# Protocol: Apoptosis was measured using the IncuCyte® Zoom system (Essen Bioscience, Hertfordshire, UK).
# Briefly, cells were seeded in 96-well plates, and left to attach overnight at 37 °C, 5% CO2. Next, cells were treated with different activity concentrations of [^177Lu]Lu-DOTA-POL3026 or [^177Lu]Lu-DTPA, ranging from 1 to 20 MBq/mL. After four hours of incubation at 37 °C and 5% CO2, cells were washed twice with PBS. The Sartorius™ IncuCyte® dyes Caspase 3/7 green reagent and Annexin V red reagent were added at 1/2000 and 1/200 dilutions, respectively. Images were analysed using the IncuCyte® Zoom software. The average values of Green Calibrated Unit GCU x µm² (for Caspase 3/7) and Red Calibrated Units RCU x µm² (for Annexin V) signal were normalised to cell confluence percentages, five and seven days after treatment. Vehicle includes the NaOAc radiolabeling buffer at the concentration used for the 20 MBq/mL peptide solutions.
# U87-CXCR4 + cells [4] = assay: DNA damage immunofluorescence (yH2AX / 53BP1)
# Protocol: DNA damage in U87-CXCR4 + cells was detected by immunofluorescent staining of the DNA damage and repair proteins, phospho-H2A histone family member X (yH2Ax) and p53-binding protein 1 (53BP1). Briefly, cells were seeded in 96-well plates and left overnight to adhere at 37 °C, 5% CO2. Next, cells were treated with different activity concentrations of [^177Lu]Lu-DOTA-POL3026 or [^177Lu]Lu-DTPA, ranging from 1 to 20 MBq/mL. After four hours of incubation, cells were washed twice with PBS, replenished with fresh media, and left at 37 °C, 5% CO2 until the fixation time point. For fixation, cells were washed with PBS, and fixed by incubating them with 4% paraformaldehyde (PFA) for 15 min at RT. This was done 0, 24 and 120 h after treatment. Cells were washed twice with PBS and stored in PBS at 4 °C until the residual radioactivity in the plate decayed. The vehicle includes the NaOAc radiolabeling buffer at the concentration used for the 20 MBq/mL peptide solutions.
# After decay storage, yH2Ax/53BP1 double staining was performed using the following protocol. First, cells were washed once with PBS-glycine and then permeabilised by washing them for 10 min with PBS-Triton X-100. […]
# Cells were imaged at 40x magnification using a BioTek Cytation 5 (Agilent Technologies, Mechelen, Belgium), where 4 fields were imaged per well, ensuring that at least a hundred cells were counted per condition. […]
compound,measurement,setting,value
"CC(C)C[C@@H](N)C(=O)NCC(=O)N[C@H](C)C(=O)N[C@H](CO)C(=O)N[C@H](Cc1c[nH]c2ccccc12)C(=O)N[C@H](Cc1c[nH]cn1)C(=O)N[C@H](CCCNC(=N)N)C(=O)N1CCC[C@@H]1C(=O)N[C@H](CC(=O)O)C(=O)N[C@H](CCCCNC(=O)CN1CCN(CC(=O)O)CCN(CC(=O)O)CCN(CC(=O)O)CC1)C(=O)NCCCC[C@@H](NC(=O)[C@H]1CCCN1C(=O)[C@@H](CC(C)C)NC(=O)[C@H]1CCCN1C(=O)[C@@H](CCCNC(=N)N)NC(=O)[C@@H](CCCCN)NC(=O)[C@@H](CCC(N)=O)NC(=O)[C@@H](Cc1ccc(O)cc1)NC(=O)CNC(=O)[C@@H](CC(C)C)NC(=O)[C@@H](CS)NC(=O)[C@@H](CS)NC(=O)[C@@H](CCCCN)NC(=O)[C@@H](CC(=O)O)NC(=O)[C@H]1CCCN1C(=O)[C@@H](CCCNC(=N)N)NC(=O)[C@@H](Cc1c[nH]cn1)NC(=O)[C@@H](Cc1c[nH]c2ccccc12)NC(=O)[C@@H](CO)NC(=O)[C@@H](C)NC(=O)CNC(=O)[C@H](N)CC(C)C)C(N)=O [[^177Lu]Lu-DOTA-DV1-K-DV3, metal not drawn] (I: H-[dL]G[dA][dS][dW][dH][dR][dP][dD][dK][dC][dC][dL]G[dY][dQ][dK][dR][dP][dL][dP][dK]-NH2 / II: H-[dL]G[dA][dS][dW][dH][dR][dP][dD][dK](DOTA); amide I:22-II:C; N-terminus and C-terminus assumed)",added activity bound to the cell membrane,"U87-CXCR4 + cells [1]; 1 nM, 4 h, 37 °C, glycine stripping buffer pH 2.8, mean ± SD, N = 2",less than 1 %AA
same,added activity internalised,"U87-CXCR4 + cells [1]; 1 nM, 4 h, 37 °C, mean ± SD, N = 2",0.2 ± 0.02 %AA
same,reduction of binding in presence of 100 µM AMD11070 (specific binding),"U87-CXCR4 + cells [1]; 1 nM, stated after the internalised fractions",negligible
same,change of uptake (%AA) at 100 nM compared with 1 nM,U87-CXCR4 + cells [1]; incubation concentration 100 nM,did not significantly increase
O=C([O-])CN(CCN(CC(=O)[O-])CC(=O)[O-])CCN(CC(=O)[O-])CC(=O)[O-].[177Lu+3] [[^177Lu]Lu-DTPA],cell viability,"U87-CXCR4 + cells [2]; 1 MBq/mL, day not stated in the sentence (follows the day 7 statement)",90.9 ± 7.8%
same,cell viability,"U87-CXCR4 + cells [2]; day 5, 20 MBq/mL, 4 h incubation, N = 3–4",50.2 ± 10.4%
same,effect on cell viability,"U87-CXCR4 + cells [2]; day 7, 2 to 20 MBq/mL",statistically-significant reduction
same,Annexin V signal,U87-CXCR4 + cells [3]; 1 MBq/mL,1.4 ± 0.8 times the vehicle
same,Annexin V signal,U87-CXCR4 + cells [3]; 10 MBq/mL,3.3 ± 3.3 times the vehicle
same,increase of yH2AX,U87-CXCR4 + cells [4]; any of the activity concentrations (1–20 MBq/mL),did not result in an increase
same,increase in 53BP1,"U87-CXCR4 + cells [4]; any timepoint (0 h, 1 day, 5 days) after treatment",No statistically-significant increase
